# Reference: US6951840B2, “Lipoglycopeptide antibiotics” (priority 2001, dated 2005)
# Tested on: Haemophilus influenzae ATCC 49247
# Experiment: Broth micro-dilution MIC, H. influenzae ATCC 49247
# Assay type: cell-based
# Details: ATCC49247, read-out: MIC, H. influenzae ATCC49247
# Procedure: (§1) The in vitro antibacterial activity of lipoglycopeptides 1, 2, 5, 6, 7, and 8 is determined according to the National Committee for Clinical Laboratory Standards (NCCLS) recommendations for broth micro-dilution assay using 2xsTH (Todd Hewitt broth), MHII (cation adjusted Mueller Hinton broth) or HTM medium (Haemophilus Test Medium) (Gerhardt, P., et al., (1994) Methods for General and Molecular Bacteriology. American Society for Microbiology, Washington, D.C.). Bacterial strains used for antibacterial assay include both gram-positive and gram-negative bacteria: S. pneumoniae R6, Staphylococcus aureus SA027, Haemophilus influenzae ATCC 49247, E. coli EL683 and EL744. A two-fold serial dilution of the test compound is prepared in 100% DMSO. The assay is performed in the wells of a sterile 96-well microplate, that is inoculated with bacterial cell suspension in growth medium or broth as above. The final volume is 100 μl cell suspension, containing 2.5% DMSO. The starting concentration of bacterial cells is 5×10^5 CFU/ml. The 96-well microplate is incubated for 23-24 hr at 37° C. in an ambient air incubator. Upon completion of incubation, the MIC (minimal inhibitory concentration) is determined by visual examination of the microplate with the aid of a magnifying mirror apparatus. The MIC is the lowest concentration of compound tested that results in no visible sign of bacterial growth.
row,Compound,MIC [µg/mL]
1,CC(C)CCCCCCCCCCCCC(=O)N(C)C(CO)C(=O)NC(C)C(=O)NCC(=O)N(C)C1C(=O)NC(C)C(=O)NC(C(=O)O)Cc2ccc(O)c(c2)-c2cc1cc(O)c2OC1OC(C)C(O)C(O)C1O (stereo not drawn) [Compound 1],64
2,CCCCCCCCCCCCCCCC(=O)N(C)C(CO)C(=O)NC(C)C(=O)NCC(=O)N(C)C1C(=O)NC(C)C(=O)NC(C(=O)O)Cc2ccc(O)c(c2)-c2cc1cc(O)c2OC1OC(C)C(O)C(O)C1O (stereo not drawn) [Compound 2],64

# Tested on: S. pneumoniae R6
# Experiment: Broth micro-dilution MIC, S. pneumoniae R6
# Assay type: cell-based
# Details: 2XsTH broth, 23-24 hr at 37° C.
# Procedure: as §1
row,Compound,"MIC, S. pneumoniae R6 [µg/mL]"
1,CCCCCCCCCCCCCCCC(=O)N(C)C(CO)C(=O)NC(C)C(=O)NCC(=O)N(C)C1C(=O)NC(C)C(=O)NC(C(=O)O)Cc2ccc(O)c(c2)-c2cc1cc(O)c2OC1OC(C)C(O)C(O)C1O (stereo not drawn) [Compound 2],16

# Same assay, conditions: Streptococcus pneumoniae, R6, 2XsTH broth, 23-24 hr at 37° C.
row,Compound,MIC [µg/mL]
1,CC(C)CCCCCCCCCCCCC(=O)N(C)C(CO)C(=O)NC(C)C(=O)NCC(=O)N(C)C1C(=O)NC(C)C(=O)NC(C(=O)O)Cc2ccc(O)c(c2)-c2cc1cc(O)c2OC1OC(C)C(O)C(O)C1O (stereo not drawn) [Compound 1],16
2,CCCCCCCCCCCCCCCC(=O)N(C)C(CO)C(=O)NC(C)C(=O)NCC(=O)N(C)C1C(=O)NC(C)C(=O)NC(C(=O)O)Cc2ccc(O)c(c2)-c2cc1cc(O)c2OC1OC(C)C(O)C(O)C1O (stereo not drawn) [Compound 2],8

# Target: T1, E. coli SPase I (Escherichia coli, UniProt P00803, I81L)
# T1 construct: His-tag (inferred from vector pET15b cloned at NdeI/XhoI and Ni-NTA purification); made in house; host or cells: E. coli BL21(DE3)
# Experiment: Kinetic analysis by HPLC assay with non-fluorogenic peptide substrate
# Assay type: biochemical
# Details: not given
# Procedure: A kinetic analysis is performed with E. coli SPase I and the non-fluorogenic peptide substrate by HPLC assay as described in Peng, et al. (2001) J. Bacterol. 183, 621-627. 50 μl of reaction volume contains 50 nM E. coli SPase I with different concentrations of substrate and lipoglycopepetide inhibitors. The reaction mixtures are incubated at room temperature for 30 mins., and terminated by the addition of an equal amount of 8 M urea. The final concentration of DMSO in the reaction mixtures is 2%. Substrate cleavage is analyzed by HPLC as described in Peng, et al. (2001) J. Bacterol. 183, 621-627. The initial rate, K1, and inhibition type of the inhibitor is calculated with Sigma Plot 2000, Version 6.2 with enzyme kinetics module (SPSS, Inc., Cat No. 3703564).
row,Compound,Ki [µM]
1,CCCCCCCCCCCCCCCC(=O)N(C)C(CO)C(=O)NC(C)C(=O)NCC(=O)N(C)C1C(=O)NC(C)C(=O)NC(C(=O)O)Cc2ccc(O)c(c2)-c2cc1cc(O)c2OC1OC(C)C(O)C(O)C1O (stereo not drawn) [Compound 2],0.158

# Tested on: E. coli EL683
# Experiment: Broth micro-dilution MIC, E. coli EL683
# Assay type: cell-based
# Details: Escherichia coli, MHII broth, 23-24 hr at 37° C.
# Procedure: as §1
row,Compound,MIC [µg/mL]
1,CC(C)CCCCCCCCCCCCC(=O)N(C)C(CO)C(=O)NC(C)C(=O)NCC(=O)N(C)C1C(=O)NC(C)C(=O)NC(C(=O)O)Cc2ccc(O)c(c2)-c2cc1cc(O)c2OC1OC(C)C(O)C(O)C1O (stereo not drawn) [Compound 1],8
2,CCCCCCCCCCCCCCCC(=O)N(C)C(CO)C(=O)NC(C)C(=O)NCC(=O)N(C)C1C(=O)NC(C)C(=O)NC(C(=O)O)Cc2ccc(O)c(c2)-c2cc1cc(O)c2OC1OC(C)C(O)C(O)C1O (stereo not drawn) [Compound 2],8

# Target: T2, S. pneumoniae SPase I (Streptococcus pneumoniae serotype 4, UniProt O07344)
# T2 construct: made in house
# T2 sequence (O07344 whole entry): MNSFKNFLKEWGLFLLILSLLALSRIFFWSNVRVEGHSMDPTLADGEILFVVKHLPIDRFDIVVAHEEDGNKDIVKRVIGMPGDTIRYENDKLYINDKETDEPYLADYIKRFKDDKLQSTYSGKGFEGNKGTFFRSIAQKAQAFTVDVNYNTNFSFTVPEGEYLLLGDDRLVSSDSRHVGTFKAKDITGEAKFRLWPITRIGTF
# Experiment: Fluorimetric IC50 determination, S. pneumoniae signal peptidase
# Assay type: biochemical
# Details: 50 nM SPase I, 50 μM fluorogenic substrate, 37° C., 1-2 hrs
# Procedure: Procedures for cloning, expression and purification of S. pneumoniae Spase can be found in reference (Peng, et al. (2001) J. Bacterol. 183, 621-627).
# (§2) “IC50” refers to the concentration of inhibitor required to achieve a half-maximal degree of inhibition of SPase I. The IC50 is determined by a fluorimetric assay as described in Peng, et al. (2001) J. Bacterol. 183, 621-627, with a fluorogenic peptide used as substrate as described therein. The reaction is performed in 50 μls of reaction mixture containing 50 nM of either E. coli or S. pneumoniae SPase I, 50 μM substrate, and a series dilution of inhibitor. Inhibitors are dissolved in dimethylsulfoxide (DMSO). Compounds in DMSO are diluted in reaction buffer. The final DMSO concentration in the reaction mixtures is 2% (v/v). Reaction mixtures are incubated at 37° C. for 1-2 hrs. The IC50 is calculated using a nonlinear regression method with GraphPad Prism™ Software (GraphPad G3-A13127-507). The inhibitory activity of lipoglycopeptides 1-8 against both E. coli and S. pneumoniae signal peptidases, are summarized in Table 7.
row,Compound,IC50 [µM]
1,CC(C)CCCCCCCCCCCCC(=O)N(C)C(CO)C(=O)NC(C)C(=O)NCC(=O)N(C)C1C(=O)NC(C)C(=O)NC(C(=O)O)Cc2ccc(O)c(c2)-c2cc1cc(O)c2OC1OC(C)C(O)C(O)C1O (stereo not drawn) [Compound 1],7.1
2,CCCCCCCCCCCCCCCC(=O)N(C)C(CO)C(=O)NC(C)C(=O)NCC(=O)N(C)C1C(=O)NC(C)C(=O)NC(C(=O)O)Cc2ccc(O)c(c2)-c2cc1cc(O)c2OC1OC(C)C(O)C(O)C1O (stereo not drawn) [Compound 2],10.3

# Target: T1, E. coli SPase I
# Experiment: Fluorimetric IC50 determination, E. coli signal peptidase
# Assay type: biochemical
# Details: not given
# Procedure: Cloning and expression of the E. coli SPase I gene is performed by polymerase chain reaction (PCR) using E. coli genomic DNA as a template and two oligonucleotides as primers: 5′-[…]-3′ (SEQ ID NO: 1) and 5′-[…]-3′ (SEQ ID NO:2). The primers are designed to contain NdeI and XhoI restriction sites at the 5′-ends, respectively, to enable cloning into the bacterial expression vector pET15b (Novagen). The primers are synthesized based upon the published sequence of E. coli SPase I (Wolfe, et al. (1983) J. Biol. Chem. 258, 12073-12080).
# Expression vector pET15b-E. coli SPase is constructed by replacing the NdeI/XhoI fragment of pET15b with the PCR fragment that is purified and digested with Ndel and XhoI. The identity of the cloned gene is confirmed by DNA sequencing. For expression of E. coli SPase I, E. coli strain BL21(DE3)(Stratagene) is transformed with pET15b-E. coli SPase, and grown and induced with 0.4 mM IPTG (isopropryl-1-thio-β-D-galactopyranoside) as described in Studier, et al. (1990) Methods Enzymol. 185, 60-89.
# For purification of E. coli SPase T, one liter of IPTG-induced E. coli BL21(DE3) cells harboring pET15b-E coli SPase is harvested by centrifugation and re-suspended in 50 ml of lysis buffer containing 50 mM Na2HPO4, 300 mM NaCl, pH 8.0, and sonicated 5 min. on ice. The lysate is then centrifuged at 50,000 g for 1 hr at 4° C. The resultant supernatant is discarded, the pellet is re-suspended, and sonicated for 5 min. in 20 ml of lysis buffer containing 8 M urea. After centrifugation at 50,000 g for 1 hr at 4° C., the supernatant is loaded onto a 5 ml column of pre-equilibrated Ni-nitrilotriacetic acid (NTA) that is then washed with 120 ml of refolding buffer (50 mM NaH2PO4, 300 mM NaCl, 15 mM imidazole) containing a continuous urea gradient from 6 to 1 M with a flow rate of 1 ml/min. The protein is eluted with 20 ml of elution buffer (20 mM Tris-HCl, pH 8.0, 20% glycerol, 1 M urea and 100 mM imidazole), and 1 ml fractions are collected and utilized for enzyme assay.
# Target sequence in this assay (P00803 77-324 I81L): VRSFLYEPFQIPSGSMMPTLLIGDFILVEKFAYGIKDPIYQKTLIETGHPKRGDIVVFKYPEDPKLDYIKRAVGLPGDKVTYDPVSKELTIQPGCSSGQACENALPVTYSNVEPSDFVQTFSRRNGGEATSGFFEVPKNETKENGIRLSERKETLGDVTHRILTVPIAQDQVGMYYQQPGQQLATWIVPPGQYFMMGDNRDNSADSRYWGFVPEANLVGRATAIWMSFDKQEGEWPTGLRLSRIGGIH
# as §2
row,Compound,IC50 [µM]
1,CC(C)CCCCCCCCCCCCC(=O)N(C)C(CO)C(=O)NC(C)C(=O)NCC(=O)N(C)C1C(=O)NC(C)C(=O)NC(C(=O)O)Cc2ccc(O)c(c2)-c2cc1cc(O)c2OC1OC(C)C(O)C(O)C1O (stereo not drawn) [Compound 1],0.17
2,CCCCCCCCCCCCCCCC(=O)N(C)C(CO)C(=O)NC(C)C(=O)NCC(=O)N(C)C1C(=O)NC(C)C(=O)NC(C(=O)O)Cc2ccc(O)c(c2)-c2cc1cc(O)c2OC1OC(C)C(O)C(O)C1O (stereo not drawn) [Compound 2],0.19

# Tested on: Staphylococcus aureus (ATCC 33592)
# Experiment: Beta-lactamase release assay
# Assay type: cell-based
# Details: beta-lactamase-producing S. aureus ATCC 33592, 2 hr incubation with inhibitor
# Procedure: In Staphylococcus aureus, signal peptidase cleaves beta-lactamase, resulting in the release of beta-lactaidase into the medium. In this example, the ability of lipoglycopeptides 1,2, and 5 to inhibit the release of beta-lactamase from Staphylococcus aureus into the medium is examined.
# Staphylococcus aureus (ATCC 33592) cells are grown overnight in a series dilution in Brain Heart Infusion (BHI) (Gerhardt, P., et al., (1994) Methods for General and Molecular Bacteriology. American Society for Microbiology, Washington, D.C.) medium in a 37° C. incubator containing 5% CO2. Cultures with an OD660 less than 0.3 are centrifuged, and the cells are washed once with fresh BHI medium. The cells are then resuspended in fresh BHI medium to an initial OD660 of 0.15-0.2. At the same time, the selected inhibitor is diluted from the DMSO stock solution into BHI medium at different concentrations, and is added to the cells which are then incubated at 37° C. under 5% CO2 for 2 hr. The final DMSO concentration in the reaction mixtures is 1% (v/v). The OD660 is measured at the end of incubation. The cells are centrifuged, and the supernatant is saved for the determination of secreted beta-lactamase. The pellet is washed once with fresh BHI medium, re-suspended in the equivalent volume of fresh BHI medium, frozen, and then thawed […]. for three cycles, and used for the determination of retained beta-lactamase. For the determination of beta-lactamase activity, 100 μl reaction mixture (30-50 μls of supernatant or lysed cells) is incubated with 250 μM nitrocefin in 1×PBS buffer (phosphate buffered saline) (pH 6.8) at 37° C. for 30-60 min. Nitrocefin is the substrate for beta-lactamase. Cleavage of nitrocefin results in an increase in absorbance at 482 nm. The absorbance at 482 nm (OD482) is measured at the beginning and at the end of the reaction. The secreted and the retained beta-lactamase activities are calculated based upon the ΔOD482.
row,Compound,inhibition of secretion of beta-lactamase
1,CC(C)CCCCCCCCCCCCC(=O)N(C)C(CO)C(=O)NC(C)C(=O)NCC(=O)N(C)C1C(=O)NC(C)C(=O)NC(C(=O)O)Cc2ccc(O)c(c2)-c2cc1cc(O)c2OC1OC(C)C(O)C(O)C1O (stereo not drawn) [Compound 1],inhibit the secretion of beta-lactamase
2,CCCCCCCCCCCCCCCC(=O)N(C)C(CO)C(=O)NC(C)C(=O)NCC(=O)N(C)C1C(=O)NC(C)C(=O)NC(C(=O)O)Cc2ccc(O)c(c2)-c2cc1cc(O)c2OC1OC(C)C(O)C(O)C1O (stereo not drawn) [Compound 2],inhibit the secretion of beta-lactamase

# Tested on: E. coli EL744
# Experiment: Broth micro-dilution MIC, E. coli EL744
# Assay type: cell-based
# Details: Escherichia coli, MHII broth, 23-24 hr at 37° C.
# Procedure: as §1
row,Compound,MIC [µg/mL]
1,CC(C)CCCCCCCCCCCCC(=O)N(C)C(CO)C(=O)NC(C)C(=O)NCC(=O)N(C)C1C(=O)NC(C)C(=O)NC(C(=O)O)Cc2ccc(O)c(c2)-c2cc1cc(O)c2OC1OC(C)C(O)C(O)C1O (stereo not drawn) [Compound 1],32
2,CCCCCCCCCCCCCCCC(=O)N(C)C(CO)C(=O)NC(C)C(=O)NCC(=O)N(C)C1C(=O)NC(C)C(=O)NC(C(=O)O)Cc2ccc(O)c(c2)-c2cc1cc(O)c2OC1OC(C)C(O)C(O)C1O (stereo not drawn) [Compound 2],32

# Tested on: Staphylococcus aureus SA027
# Experiment: Broth micro-dilution MIC, S. aureus SA027
# Assay type: cell-based
# Details: MHII broth, 23-24 hr at 37° C.
# Procedure: as §1
row,Compound,MIC [µg/mL]
1,CC(C)CCCCCCCCCCCCC(=O)N(C)C(CO)C(=O)NC(C)C(=O)NCC(=O)N(C)C1C(=O)NC(C)C(=O)NC(C(=O)O)Cc2ccc(O)c(c2)-c2cc1cc(O)c2OC1OC(C)C(O)C(O)C1O (stereo not drawn) [Compound 1],32
2,CCCCCCCCCCCCCCCC(=O)N(C)C(CO)C(=O)NC(C)C(=O)NCC(=O)N(C)C1C(=O)NC(C)C(=O)NC(C(=O)O)Cc2ccc(O)c(c2)-c2cc1cc(O)c2OC1OC(C)C(O)C(O)C1O (stereo not drawn) [Compound 2],64
